Structures are written as SMILES. pKi: −log10 of the molar value.

Chain of Genome polyprotein (P27958 1027-1657 limits assumed): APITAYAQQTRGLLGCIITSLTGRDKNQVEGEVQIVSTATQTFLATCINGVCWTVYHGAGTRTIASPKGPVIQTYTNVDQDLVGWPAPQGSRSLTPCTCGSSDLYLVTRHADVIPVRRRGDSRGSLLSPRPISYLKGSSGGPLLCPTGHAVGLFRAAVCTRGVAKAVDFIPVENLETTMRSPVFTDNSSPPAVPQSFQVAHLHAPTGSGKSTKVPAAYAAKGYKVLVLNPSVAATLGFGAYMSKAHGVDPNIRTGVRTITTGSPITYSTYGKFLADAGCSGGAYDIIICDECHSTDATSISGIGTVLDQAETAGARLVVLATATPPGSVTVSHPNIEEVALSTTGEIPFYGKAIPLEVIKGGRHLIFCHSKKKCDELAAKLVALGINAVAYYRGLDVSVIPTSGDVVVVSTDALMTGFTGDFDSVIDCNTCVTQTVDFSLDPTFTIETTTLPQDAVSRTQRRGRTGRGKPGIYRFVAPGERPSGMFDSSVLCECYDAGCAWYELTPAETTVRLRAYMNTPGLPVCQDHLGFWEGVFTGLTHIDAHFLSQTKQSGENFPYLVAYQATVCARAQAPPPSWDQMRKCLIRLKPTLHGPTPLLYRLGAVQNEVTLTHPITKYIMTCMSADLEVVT

The first experiment concerns the target Genome polyprotein (Hepatitis C virus genotype 1a (isolate H77), UniProt P27958). The experiment in a line: Continuous Spectrophotometric Assay.
Conditions: not given
As to the method:
Proteolytic cleavage of the ester linkage between the Nva (L-norvaline) and the chromophore (PAP) was monitored for change in absorbance at 370 nm. Initial velocities were determined using linear regression and kinetic constants were obtained by fitting the data to the Michaelis-Menten equation.
By pKi is commonly meant the Ki on a negative log10 scale, so that one unit is a factor of ten. A high value points to a low Ki. As to `C=CCNC(=O)C(=O)[C@@H]1CCCCCCCCC[C@H](NC(=O)N[C@H](C(=O)C2CC2)C2CCCCC2)C(=O)N2C[C@H]3[C@@H]([C@H]2C(=O)N1)C3(C)C` [2-[(3S,13S,16S,17R,19S)-3-({[(1S)-1-cyclohexyl-2-cyclopropyl-2-oxoethyl]carbamoyl}amino)-18,18-dimethyl-2,15-dioxo-1,14-diazatricyclo[14.4.0.0^{17,19}]icosan-13-yl]-2-oxo-N-(prop-2-en-1-yl)acetamide], the negative-log Ki (pKi) is 8.22. In turn, `C=CCNC(=O)C(=O)[C@@H]1CCCCCCCCC[C@H](NC(=O)N[C@H](CN2Cc3sccc3S2(=O)=O)C(C)(C)C)C(=O)N2C[C@H]3[C@@H]([C@H]2C(=O)N1)C3(C)C` [2-[(3S,13S,16S,17R,19S)-3-({[(2S)-1-(1,1-dioxo-2H,3H-1,4,2-thieno[2,3-d][1,2]thiazol-2-yl)-3,3-dimethylbutan-2-yl]carbamoyl}amino)-18,18-dimethyl-2,15-dioxo-1,14-diazatricyclo[14.4.0.0^{17,19}]icosan-13-yl]-2-oxo-N-(prop-2-en-1-yl)acetamide] had a pKi of 8.15.

`C=CCNC(=O)C(=O)[C@@H]1CCCCCCCCC[C@H](NC(=O)N[C@H](CN2C(=O)c3ccccc3C2=O)C(C)(C)C)C(=O)N2C[C@H]3[C@@H]([C@H]2C(=O)N1)C3(C)C` [2-[(3S,13S,16S,17R,19S)-3-({[(2S)-1-(1,3-dioxo-2,3-dihydro-1H-isoindol-2-yl)-3,3-dimethylbutan-2-yl]carbamoyl}amino)-18,18-dimethyl-2,15-dioxo-1,14-diazatricyclo[14.4.0.0^{17,19}]icosan-13-yl]-2-oxo-N-(prop-2-en-1-yl)acetamide] had a pKi of 7.80.

Consider `C=CCNC(=O)C(=O)[C@@H]1CCCCCCCCC[C@H](NC(=O)N[C@H](CN2C(=O)CC(C)(C)CC2=O)C(C)(C)C)C(=O)N2C[C@H]3[C@@H]([C@H]2C(=O)N1)C3(C)C` [2-[(3S,13S,16S,17R,19S)-3-({[(2S)-1-(4,4-dimethyl-2,6-dioxopiperidin-1-yl)-3,3-dimethylbutan-2-yl]carbamoyl}amino)-18,18-dimethyl-2,15-dioxo-1,14-diazatricyclo[14.4.0.0^{17,19}]icosan-13-yl]-2-oxo-N-(prop-2-en-1-yl)acetamide], for which the pKi is 8.70. Still for that read-out and setting: in the case of `C=CCNC(=O)C(=O)[C@@H]1CCCCCCCCC[C@H](NC(=O)N[C@H](CN2CCC(C)(C)CC2=O)C(C)(C)C)C(=O)N2C[C@H]3[C@@H]([C@H]2C(=O)N1)C3(C)C` [2-[(3S,13S,16S,17R,19S)-3-({[(2S)-1-(4,4-dimethyl-2-oxopiperidin-1-yl)-3,3-dimethylbutan-2-yl]carbamoyl}amino)-18,18-dimethyl-2,15-dioxo-1,14-diazatricyclo[14.4.0.0^{17,19}]icosan-13-yl]-2-oxo-N-(prop-2-en-1-yl)acetamide] it was 8.70; in that of `C=CCNC(=O)C(=O)[C@@H]1CCCCCCCCC[C@H](NC(=O)N[C@H](CN(C)S(=O)(=O)N(C)C)C(C)(C)C)C(=O)N2C[C@H]3[C@@H]([C@H]2C(=O)N1)C3(C)C` [2-[(3S,13S,16S,17R,19S)-3-({[(2S)-1-[(dimethylsulfamoyl)(methyl)amino]-3,3-dimethylbutan-2-yl]carbamoyl}amino)-18,18-dimethyl-2,15-dioxo-1,14-diazatricyclo[14.4.0.0^{17,19}]icosan-13-yl]-2-oxo-N-(prop-2-en-1-yl)acetamide], 7.89; in that of `C=CCNC(=O)C(=O)[C@@H]1CCCCCCCCC[C@H](NC(=O)N[C@H](CN(C)S(C)(=O)=O)C(C)(C)C)C(=O)N2C[C@H]3[C@@H]([C@H]2C(=O)N1)C3(C)C` [2-[(3S,13S,16S,17R,19S)-3-({[(2S)-1-[methane(methyl)sulfonamido]-3,3-dimethylbutan-2-yl]carbamoyl}amino)-18,18-dimethyl-2,15-dioxo-1,14-diazatricyclo[14.4.0.0^{17,19}]icosan-13-yl]-2-oxo-N-(prop-2-en-1-yl)acetamide], 8.52. On the same count and under the same terms, in the case of `C=CCNC(=O)C(=O)[C@@H]1CCCCCCCCC[C@H](NC(=O)N[C@H](CN2C(=O)C3CCC(C3)C2=O)C(C)(C)C)C(=O)N2C[C@H]3[C@@H]([C@H]2C(=O)N1)C3(C)C` [2-[(3S,13S,16S,17R,19S)-3-({[(2S)-1-{2,4-dioxo-3-azabicyclo[3.2.1]octan-3-yl}-3,3-dimethylbutan-2-yl]carbamoyl}amino)-18,18-dimethyl-2,15-dioxo-1,14-diazatricyclo[14.4.0.0^{17,19}]icosan-13-yl]-2-oxo-N-(prop-2-en-1-yl)acetamide] it was 8.52. In the case of `C=CCNC(=O)C(=O)[C@@H]1CCCCCCCCC[C@H](NC(=O)N[C@H](CN2C(=O)CN(C)CC2=O)C(C)(C)C)C(=O)N2C[C@H]3[C@@H]([C@H]2C(=O)N1)C3(C)C` [2-[(3S,13S,16S,17R,19S)-3-({[(2S)-3,3-dimethyl-1-(4-methyl-2,6-dioxopiperazin-1-yl)butan-2-yl]carbamoyl}amino)-18,18-dimethyl-2,15-dioxo-1,14-diazatricyclo[14.4.0.0^{17,19}]icosan-13-yl]-2-oxo-N-(prop-2-en-1-yl)acetamide], the pKi is 8.40. The compound `C=CCNC(=O)C(=O)[C@@H]1CCCCCCCCC[C@H](NC(=O)N[C@H](CN(C)S(=O)(=O)c2ccccn2)C(C)(C)C)C(=O)N2C[C@H]3[C@@H]([C@H]2C(=O)N1)C3(C)C` [2-[(3S,13S,16S,17R,19S)-3-({[(2S)-3,3-dimethyl-1-[methyl(pyridine-2-)sulfonamido]butan-2-yl]carbamoyl}amino)-18,18-dimethyl-2,15-dioxo-1,14-diazatricyclo[14.4.0.0^{17,19}]icosan-13-yl]-2-oxo-N-(prop-2-en-1-yl)acetamide] gave a pKi of 8.15.

Still in this experiment, the particulars now being: pH 6.5; 30 °C.
`CN(C[C@@H](NC(=O)N[C@H]1CCCCCCCCC[C@@H](C(=O)C(N)=O)NC(=O)[C@@H]2[C@@H]3[C@H](CN2C1=O)C3(C)C)C(C)(C)C)S(C)(=O)=O` [2-[(3S,13S,16S,17R,19S)-3-({[(2S)-1-[methane(methyl)sulfonamido]-3,3-dimethylbutan-2-yl]carbamoyl}amino)-18,18-dimethyl-2,15-dioxo-1,14-diazatricyclo[14.4.0.0^{17,19}]icosan-13-yl]-2-oxoacetamide] gave a pKi of 8.52. For the compound `CC(C)[C@H](NC(=O)N[C@H]1CCCCCCCCC[C@@H](C(=O)C(N)=O)NC(=O)[C@@H]2[C@@H]3[C@H](CN2C1=O)C3(C)C)C(=O)C1CC1` [2-[(3S,13S,16S,17R,19S)-3-({[(2S)-1-cyclopropyl-3-methyl-1-oxobutan-2-yl]carbamoyl}amino)-18,18-dimethyl-2,15-dioxo-1,14-diazatricyclo[14.4.0.0^{17,19}]icosan-13-yl]-2-oxoacetamide], the pKi was 7.96. Same read-out and setting: in the case of `C=CCNC(=O)C(=O)[C@@H]1CCCCCCCCC[C@H](NC(=O)N[C@H](CN(C)S(=O)(=O)c2cccs2)C(C)(C)C)C(=O)N2C[C@H]3[C@@H]([C@H]2C(=O)N1)C3(C)C` [2-[(3S,13S,16S,17R,19S)-3-({[(2S)-3,3-dimethyl-1-[methyl(thiophene-2-)sulfonamido]butan-2-yl]carbamoyl}amino)-18,18-dimethyl-2,15-dioxo-1,14-diazatricyclo[14.4.0.0^{17,19}]icosan-13-yl]-2-oxo-N-(prop-2-en-1-yl)acetamide] it was 8.30.

For the origin of these results see BindingDB's records for doi:10.1021/jm800940u (Schering-Plough Research Institute, 2009).
